The record followed here is US8318947B2, “Comestible compositions comprising high potency savory flavorants, and processes for producing them” (Senomyx, Inc., priority 2006, dated 2012).

For series [1], the system named is human panelists, savory taste. The series can be described thus: Savory taste test with trained human panel (difference from reference). Type of series: in vivo. The conditions noted are these: for Taste Data: cpd concentration as strong as 12 mM MSG: compound alone, without MSG; for Taste Data: cpd concentration at which 12 mM MSG + cpd is as strong as 12 mM MSG + 100 μM IMP: with 12 mM MSG, reference 12 mM MSG + 100 μM IMP. As to the method: General Panelist Selection: Basic screening of sensory taste testers: Potential panelists were tested for their abilities to rank and rate intensities of solutions representing the five basic tastes. Panelists ranked and rated intensity of five different concentrations of each of the five following compounds: sucrose (sweet), sodium chloride (salty), citric acid (sour), caffeine (bitter), and monosodium glutamate (savory). In order to be selected for participation in testing, panelists needed to correctly rank and rate samples for intensity, with a reasonable number of errors.
Preliminary Taste Tests: The panelists selected in the above procedure were deemed qualified for performing Preliminary Taste Testing procedures. The preliminary taste tests are used to evaluate new compounds for intensity of basic tastes and off-tastes. A small group of panelists (n=5) taste approximately 5 concentrations of the compound (range typically between 1-100 μM, in half-log cycles, e.g., 1, 3, 10, 30, and 100 μM) in water and in a solution of 12 mM MSG to evaluate enhancement. Panelists rate the five basic tastes (sweet, salty, sour, bitter, and savory) as well as off-tastes (such as chemical, metallic, sulfur) on a labeled magnitude scale. Samples are served in 10 mL portions at room temperature. The purpose of the test is to determine the highest concentration at which there is no objectionable off-taste, and determine if obvious savory taste or enhancement of savory taste exists at any of the concentrations tested.
Trained Panelist Selection: A trained expert panel was used to further evaluate compounds that had been tested with the preliminary taste test.
Panelists for the trained panel were selected from the larger group of qualifying taste panelists. Panelists were further trained on savory taste by ranking and rating experiments using MSG and IMP combinations. Panelists completed a series of ranking, rating, and difference from reference tests with savory solutions. In ranking and rating experiments, panelists evaluated easy MSG concentrations (0, 6, 18, 36 mM) and more difficult MSG concentrations (3, 6, 12, 18 mM MSG) in water.
Compound testing with Trained Panel: Compounds tested by the trained panel were evaluated in difference from reference experiments. […] Test samples were solutions with varying amounts of MSG, IMP, and the compound. Typically, each session compares the reference sample to numerous test samples. […] Compounds were tested against the reference in samples with and without 12 mM MSG. All samples were presented in 10 ml volumes at room temperature. Two sessions were completed for each compound tested to evaluate panel reproducibility.

Series [2] deals with T1, hT1R1/hT1R3 umami receptor expressed in an HEK293 cell line (Homo sapiens, UniProt Q7RTX0+Q7RTX1).
T1 construct: expressed in transfected cells; host or cells: HEK293 cell line derivative, clone 1-17, expression induced with mifepristone
T1 sequence (Q7RTX1 21-841): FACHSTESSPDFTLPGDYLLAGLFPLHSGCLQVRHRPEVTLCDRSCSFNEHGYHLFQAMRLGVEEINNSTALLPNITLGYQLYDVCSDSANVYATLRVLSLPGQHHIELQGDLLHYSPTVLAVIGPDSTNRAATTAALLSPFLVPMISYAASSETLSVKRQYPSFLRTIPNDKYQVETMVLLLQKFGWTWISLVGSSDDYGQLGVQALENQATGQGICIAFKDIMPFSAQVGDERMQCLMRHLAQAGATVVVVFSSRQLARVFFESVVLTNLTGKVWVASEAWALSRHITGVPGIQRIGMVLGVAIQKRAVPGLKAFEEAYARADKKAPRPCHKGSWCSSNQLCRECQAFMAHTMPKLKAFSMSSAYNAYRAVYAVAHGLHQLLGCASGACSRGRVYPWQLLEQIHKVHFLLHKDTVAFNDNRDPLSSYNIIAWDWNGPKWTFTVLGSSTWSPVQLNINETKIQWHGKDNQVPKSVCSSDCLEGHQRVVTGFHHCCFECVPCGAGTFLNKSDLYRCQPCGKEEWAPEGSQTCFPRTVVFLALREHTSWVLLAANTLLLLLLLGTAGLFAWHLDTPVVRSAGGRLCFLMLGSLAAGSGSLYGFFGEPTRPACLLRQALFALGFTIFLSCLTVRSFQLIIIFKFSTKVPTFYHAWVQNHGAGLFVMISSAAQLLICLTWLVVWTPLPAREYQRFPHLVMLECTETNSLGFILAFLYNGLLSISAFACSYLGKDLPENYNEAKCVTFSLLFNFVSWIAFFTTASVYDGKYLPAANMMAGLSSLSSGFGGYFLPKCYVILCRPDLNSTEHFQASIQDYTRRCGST
T1 sequence (Q7RTX0 21-852): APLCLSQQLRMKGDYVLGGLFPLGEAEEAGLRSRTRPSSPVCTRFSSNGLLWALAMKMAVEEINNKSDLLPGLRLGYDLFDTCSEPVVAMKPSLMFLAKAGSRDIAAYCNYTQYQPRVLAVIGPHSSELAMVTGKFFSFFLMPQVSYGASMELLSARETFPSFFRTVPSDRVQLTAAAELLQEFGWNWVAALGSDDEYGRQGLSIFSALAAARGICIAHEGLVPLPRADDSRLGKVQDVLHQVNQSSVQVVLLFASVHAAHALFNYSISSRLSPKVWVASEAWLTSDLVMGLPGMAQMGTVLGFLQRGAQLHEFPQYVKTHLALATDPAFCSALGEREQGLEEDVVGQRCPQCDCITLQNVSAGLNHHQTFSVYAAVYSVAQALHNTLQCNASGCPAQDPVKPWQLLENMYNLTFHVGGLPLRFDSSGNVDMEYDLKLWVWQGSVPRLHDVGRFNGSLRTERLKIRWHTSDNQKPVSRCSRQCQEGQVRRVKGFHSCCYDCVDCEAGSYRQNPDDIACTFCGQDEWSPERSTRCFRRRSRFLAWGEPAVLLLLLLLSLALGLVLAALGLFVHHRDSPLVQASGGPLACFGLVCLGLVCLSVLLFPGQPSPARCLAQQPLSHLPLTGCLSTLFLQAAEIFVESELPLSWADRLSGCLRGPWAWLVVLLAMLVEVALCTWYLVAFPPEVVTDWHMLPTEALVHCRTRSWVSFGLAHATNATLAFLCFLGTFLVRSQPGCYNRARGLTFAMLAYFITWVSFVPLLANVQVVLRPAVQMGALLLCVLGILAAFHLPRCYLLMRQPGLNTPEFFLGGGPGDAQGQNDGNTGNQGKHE
The series is described as follows: Umami taste enhancement assay (EC50 ratio vs. MSG). Type of series: cell-based. An excerpt: In umami taste enhancement activity assay experiments, which produce an “EC50 ratio” measurement of how effectively the amide compounds of the invention enhance the savory flavorant (typically MSG) already in a test solution. A series of measurements of the dose response is run in solutions comprising MSG alone, then a second dose response is run with MSG in combination with predetermined amounts of a candidate compound of Formula (I) at the same time.
In this assay, increasing concentrations of monosodium glutamate (ranging from 12 μM to 81 mM) were presented, in duplicates, in the presence or absence of a fixed concentration of the test compound. Typical compound concentrations tested were 30 μM, 10 μM, 3 μM, 1 μM, 0.3 μM, 0.1 μM and 0.03 μM. The relative efficacy of compounds of […] at enhancing the receptor was determined by calculating the magnitude of a shift in the EC50 for monosodium glutamate. Enhancement was defined as a ratio (EC50R) corresponding to the EC50 of monosodium glutamate, determined in the absence of the test compound, divided by the EC50 of monosodium glutamate, determined in the presence of the test compound.
Stated alternatively, “EC50 ratio” as compared to MSG is calculated based on the following definitions:
EC50 Ratio vs. MSG=EC50 (MSG)/EC50 (MSG+[Compound]) wherein “[compound]” refers to the concentration of the compound of Formula (I) used to elicit (or enhance or potentiate) the MSG dose response.
It should be noted that the EC50 ratio measured can depend somewhat on the concentration of the compound itself. Preferred savory enhancers would have a high EC50 Ratio vs. MSG at a low concentration of the compound used.

Series [3] has as its system trained tasters, savory, salt, spice flavors. The series is described as follows: Italian sausage rank-rating intensity taste test. Particulars: scale 0-10, ten tasters. Type of series: in vivo, human. From the text: Three different dry Italian sausage seasoning mixes were formulated by dry blending the ingredients shown in the Tables below, then rehydrated during the formulation of corresponding sausages. One control sample of seasoning mix (Tables 36-1a, b) contained no MSG, and no compounds of the invention. A second sample of seasoning mix and sausage contained added MSG (Tables 36-2a, b). A third sample of Seasoning mix and corresponding sausage also contained added savory flavor concentrate compositions (prepared as per Example 34) containing (0.1% wt/wt) of compounds 1 and 24 ([…]).
Ten trained tasters were trained to identify the relative intensities of the following taste attributes: salty, savory/meaty, umami, brothiness, bitter, linger and off flavors. A rank-rating intensity test was used to evaluate the Italian Sausagesamples. A rank rating is a difference test to determine whether a sensory difference is perceived between various samples. Samples that were evaluated were the Italian Sausage no MSG, Italian sausage with MSG, Italian sausage with compounds 1 and 24 but no MSG. The panelists evaluated 3 randomized, blind coded samples of one ounce of Italian sausage served at 140° F., and ranked the intensity of savory, salt, spice flavors on a scale of 0-10: 0 being the least intense and 10 being the most intenese, and the scores were averaged for individual category.

Consider `COc1ccc2c(c1)CCC2NC(=O)c1ccc(OC)c(C)c1` (racemic) [Example 22, (R/S)-4-Methoxy-N-(5-methoxy-2,3-dihydro-1H-inden-1-yl)-3-methylbenzamide], for which, in series [1], the “Taste Data: cpd concentration as strong as 12 mM MSG” value worked out at 1 μM cpd as strong as and the “Taste Data: cpd concentration at which 12 mM MSG + cpd is as strong as 12 mM MSG + 100 μM IMP” value (shortened to “Taste Data … as 12 mM MSG + 100 μM IMP”) was found to be 12 mM MSG + 1 μM cpd as.

For the compound `CC1CCCC(NC(=O)c2ccc3c(c2)OCO3)C1C` (stereo not drawn) [Example 4], the “EC50 ratio (enhancement of the effectiveness of monosodium glutamate)” value in series [2] (compound present at 1 μM) is reported as 8.4.

Consider `COC(=O)[C@@H](CC(C)C)NC(=O)c1ccc2c(c1)OCO2` [Example 5, (R)-methyl 2-(benzo[d][1,3]dioxole-6-carboxamido)-4-methylpentanoate], for which the “EC50 ratio (enhancement of the effectiveness of monosodium glutamate)” value in series [2] (compound present at 0.1 μM) stood at 4.9. The “Taste Data … as 12 mM MSG + 100 μM IMP” value in series [1] is recorded as 12 mM MSG + 10 μM cpd as.

Take `CCCC(CCC)NC(=O)c1ccc2c(c1)OC(C)O2` (stereo not drawn) [Example 9, N-(heptan-4-yl)-2-methylbenzo[d][1,3]dioxole-5-carboxamide]: the “EC50 ratio (enhancement of the effectiveness of monosodium glutamate)” value in series [2] (compound present at 0.03 μM) is on record as 3.68.

Turning to `COC(=O)[C@@H](CC(C)C)NC(=O)c1ccc(OC)c(Cl)c1` [Example 16, (R)-methyl 2-(3-chloro-4-methoxybenzamido)-4-methylpentanoate], in series [2] (compound present at 0.01 μM), the “EC50 ratio (enhancement of the effectiveness of monosodium glutamate)” value is 13.18.

Regarding `COC[C@@H](CC(C)C)NC(=O)c1ccc(C)c(C)c1` [Example 18, (R)—N-(1-methoxy-4-methylpentan-2-yl)-3,4-dimethylbenzamide], the “Taste Data … as 12 mM MSG + 100 μM IMP” value in series [1] worked out at 12 mM MSG + 3 μM cpd as.

As for `COC(=O)[C@@H](CC(C)C)NC(=O)c1cc(C)c(C)o1` [Example 19, (R)-methyl 2-(2,3-dimethylfuran-5-carboxamido)-4-methylpentanoate], the “Taste Data … as 12 mM MSG + 100 μM IMP” value in series [1] stood at 12 mM MSG + 10 μM cpd as.

`COC(=O)[C@@H](CC(C)C)NC(=O)c1cc(OC)nc(OC)c1` [Example 20, (R)-methyl 2-(2,6-dimethoxyisonicotinamido)-4-methylpentanoate]: the “Taste Data … as 12 mM MSG + 100 μM IMP” value in series [1] was found to be 12 mM MSG + 3 μM cpd as.

For `COc1ccccc1CNC(=O)C(=O)NCCc1ccccn1` [Example 23, N-(2-Methoxy-benzyl)-N′-(2-pyridin-2-yl-ethyl)-oxalamide], the melting point (as a rule, the temperature, or range, at which the solid turns liquid) was 118 to 119 °C. Moreover, the “EC50 ratio (enhancement of the effectiveness of monosodium glutamate)” value in series [2] (compound present at 0.3 μM) came to 18.85.

The compound `Cc1ccc(CNC(=O)C(=O)NCCc2ccccn2)cc1` [Example 25, N-(4-methyl-benzyl)-N′-(2-pyridin-2-yl-ethyl)-oxalamide] displayed a melting point of 152 to 154 °C.

`COc1cc(C)ccc1CNC(=O)C(=O)NCCc1ccccn1` [Example 26, N-(2-methoxy-4-methylbenzyl)-N′-(2-(pyridin-2-yl)ethyl)oxalamide] displayed a melting point of 128 to 131 °C. For the same compound, in series [1], the “Taste Data: cpd concentration as strong as 12 mM MSG” value came to 1 μM cpd as strong as and the “Taste Data … as 12 mM MSG + 100 μM IMP” value was found to be 12 mM MSG + 1 μM cpd as.

Consider `Cc1ccc(CNC(=O)C(=O)NCCc2ccccn2)c(C)c1` [Example 27, N-(2,4-dimethylbenzyl)-N′-(2-(pyridin-2-yl)ethyl)oxalamide], for which the melting point was in the range of 148 to 149 °C.

The compound `CCOc1ccc(CNC(=O)C(=O)NCCc2ccccn2)c(OC)c1` [Example 28, N-(4-ethoxy-2-methoxybenzyl)-N′-(2-(pyridin-2-yl)ethyl)oxalamide] had a melting point of 117 to 118 °C.

With `N[C@@H](CCC(=O)O)C(=O)[O-].[Na+]` [MSG, monosodium glutamate], in series [3], the “Average score Salt” value turned out to be 5.24, the “Average score Savory” value is listed as 6.13 and the “Average score Spice” value was 5.42.
